Measurements published in publication PMC5995184, “Potent anti-leukemic activity of a specific cyclin-dependent kinase 9 inhibitor in mouse models of chronic lymphocytic leukemia” (Oncotarget, 2018).
pIC50: −log10 of the molar value. Like-named read-outs stand apart in the source and are kept apart here.

Columns and labels:
CDK1-Cyclin B1 = molecular target: T1, CDK1-Cyclin B1 (Homo sapiens, UniProt P06493); assay: FRET-based LANCE Ultra in vitro enzymatic kinase assay, CDK1; type: biochemical
T1 construct: purchased Carna Biosciences
T1 sequence (P06493 whole entry): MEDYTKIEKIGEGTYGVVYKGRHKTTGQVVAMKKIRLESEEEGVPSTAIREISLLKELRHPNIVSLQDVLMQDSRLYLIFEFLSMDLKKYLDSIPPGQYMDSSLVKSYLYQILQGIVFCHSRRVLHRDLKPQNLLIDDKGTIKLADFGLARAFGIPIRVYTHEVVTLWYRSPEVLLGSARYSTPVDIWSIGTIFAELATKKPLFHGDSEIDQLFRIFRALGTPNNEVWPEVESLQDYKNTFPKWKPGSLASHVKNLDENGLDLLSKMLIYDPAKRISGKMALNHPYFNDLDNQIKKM
T1 sequence (P14635 whole entry partner): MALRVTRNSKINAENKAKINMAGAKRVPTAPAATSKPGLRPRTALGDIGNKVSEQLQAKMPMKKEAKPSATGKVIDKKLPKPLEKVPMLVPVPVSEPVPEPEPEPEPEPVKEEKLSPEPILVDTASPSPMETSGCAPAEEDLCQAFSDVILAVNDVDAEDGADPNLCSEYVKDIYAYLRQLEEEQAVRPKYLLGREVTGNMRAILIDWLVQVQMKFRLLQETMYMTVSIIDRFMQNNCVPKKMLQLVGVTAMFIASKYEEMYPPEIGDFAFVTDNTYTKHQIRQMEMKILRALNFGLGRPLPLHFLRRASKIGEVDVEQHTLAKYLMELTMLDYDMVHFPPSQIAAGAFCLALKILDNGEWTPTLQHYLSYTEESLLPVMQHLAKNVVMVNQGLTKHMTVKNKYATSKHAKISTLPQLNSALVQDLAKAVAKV
Protocol: (§1) IC50 values for CDK inhibitors were determined using the fluorescence resonance energy transfer (FRET)-based LANCE Ultra KinaSelect Ser/Thr kit (Perkin Elmer). Kinase activity and inhibition were measured according to the manufacturer’s instructions and as previously described. […] FRET signals were recorded in a time-resolved manner in a Perkin Elmer EnVision reader. Purified cyclin-kinase pairs were obtained from the following suppliers: Carna Biosciences (CDK1-Cyclin B1, CDK6-Cyclin D3, CDK7-Cyclin H-MAT1), ProQinase (CDK2-Cyclin A) and Invitrogen (CDK9-Cyclin T1).
(§2) Data were analyzed with GraphPad Prism 7 software. Differences were assessed by unpaired or paired Student t tests if not indicated otherwise. Two-sided probabilities of less than 0.05 were considered significant. Nonlinear regression sigmoidal dose-response curve fit was used to determine the IC50 values and to generate graphs.

CDK7-Cyclin H-MAT1 = molecular target: T2, CDK7-Cyclin H-MAT1 (Homo sapiens, UniProt P50613); assay: FRET-based LANCE Ultra in vitro enzymatic kinase assay, CDK7; type: biochemical
T2 construct: purchased Carna Biosciences
T2 sequence (P50613 whole entry): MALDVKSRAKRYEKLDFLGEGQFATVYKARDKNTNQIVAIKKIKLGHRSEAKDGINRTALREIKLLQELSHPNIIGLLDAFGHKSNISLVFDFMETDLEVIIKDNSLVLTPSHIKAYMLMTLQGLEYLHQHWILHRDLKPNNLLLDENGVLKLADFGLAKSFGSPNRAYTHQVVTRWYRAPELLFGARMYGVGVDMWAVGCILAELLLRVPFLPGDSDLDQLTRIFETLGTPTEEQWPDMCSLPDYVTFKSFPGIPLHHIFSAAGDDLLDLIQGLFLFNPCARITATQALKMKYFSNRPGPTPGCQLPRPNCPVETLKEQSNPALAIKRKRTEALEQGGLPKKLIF
T2 sequence (P51946 whole entry partner): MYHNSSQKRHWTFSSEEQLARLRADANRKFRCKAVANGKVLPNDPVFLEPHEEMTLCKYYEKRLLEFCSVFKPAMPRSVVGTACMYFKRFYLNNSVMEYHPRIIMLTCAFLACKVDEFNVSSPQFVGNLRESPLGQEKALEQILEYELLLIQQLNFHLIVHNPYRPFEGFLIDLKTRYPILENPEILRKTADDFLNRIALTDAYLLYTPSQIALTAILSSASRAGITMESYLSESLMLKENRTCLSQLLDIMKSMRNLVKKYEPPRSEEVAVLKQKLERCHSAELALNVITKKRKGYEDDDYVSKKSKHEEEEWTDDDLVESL
T2 sequence (P51948 whole entry partner): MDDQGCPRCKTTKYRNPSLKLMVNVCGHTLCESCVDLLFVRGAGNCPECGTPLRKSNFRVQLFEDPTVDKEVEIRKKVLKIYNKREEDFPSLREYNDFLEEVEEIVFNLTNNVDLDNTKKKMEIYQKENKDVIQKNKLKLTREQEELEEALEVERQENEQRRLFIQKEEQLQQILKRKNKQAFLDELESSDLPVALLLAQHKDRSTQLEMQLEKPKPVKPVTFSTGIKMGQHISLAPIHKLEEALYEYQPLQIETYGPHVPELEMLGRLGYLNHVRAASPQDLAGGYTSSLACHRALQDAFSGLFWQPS
Protocol: as §1, §2

[1] = system: primary CLL cells (CLL PBMC); assay: Primary CLL cells apoptosis, viability, MCL-1/BCL-2 (flow cytometry); type: cell-based, human; conditions: for pIC50: Homo sapiens, CLL cell, read-out: IC50, absolute number of viable CLL PBMC
Protocol: The MEC-1 cell line was obtained from the DSMZ (Braunschweig, Germany) and was cultured in RPMI (10% fetal bovine serum). A LDC526 stock solution was prepared with DMSO, diluted and added to the cultures to reach the specified concentrations. Samples (percentage of CD19+CD5+ CLL cells >90%) of n=37 CLL patients (Table 1) and n=6 healthy normal donor controls were used for experiments after obtaining informed consent according to institutional guidelines, approved by the Ethics Commission of the University of Essen-Duisburg. Peripheral blood mononuclear cells (PBMC) were isolated using Lymphoprep ([…] Technologies, Cologne, Germany) density gradient centrifugation and were used directly for NSG transplantation or in vitro experiments. Untouched normal donor B cells were isolated with a B cell isolation kit (Miltenyi, Bergisch Gladbach, Germany) according to the manufacturer’s instructions. For in vitro experiments, cells were maintained in RPMI supplemented with 10% fetal bovine serum, penicillin and streptomycin.
Apoptosis and cell death were determined by using Annexin V (BD Biosciences, Heidelberg, Germany) and 4′,6-Diamidin-2-phenylindol (DAPI, Sigma-Aldrich) staining. Erythrocytes of murine peripheral blood samples were lysed with NH4Cl hypotonic solution. Single cell suspensions of murine spleens were prepared as previously described. Murine cells were stained with antibodies directed against murine CD3 (clone 145-2C11), CD5 (53-7.3) and CD19 (1D3), respectively. For the detection of human cells in NSG spleens antibodies against human CD3 (clone SK7), CD4 (SK3), CD5 (L17F12), CD8 (SK1), CD19 (J3-119 or SJ25C1) and CD45 (2D1) were used (purchased from BD Bioscience, Biolegend and Beckman Coulter). Flow cytometric analysis was carried out on a LSRII flow cytometer (BD Biosciences, Heidelberg, Germany). Flow cytometric data were analyzed with BD FACSDiva or FlowJo software (FLOWJO, LLC, Ashland, OR, USA). Intracellular staining for MCL-1 and BCL-2 (anti-MCL-1 [clone D2W9E, Cell Signaling Technology, Leiden, The Netherlands] and matched isotype control [clone DA1E, Cell Signaling Technology]; anti-BCL-2 [clone Bcl-2/100, BD Bioscience] and matched isotype control [clone MOPC-21, BD Bioscience]) within MEC-1 and primary CLL cells was performed with the FoxP3 / Transcription factor staining buffer set (eBioscience/Thermo Fisher Scientific, Dreieich, Germany) according to the manufacturer’s instructions. Before permeabilization and antibody incubation cells were stained with a fixable viability dye (eFluor 450, eBioscience/Thermo Fisher Scientific). Before adding the anti-MCL-1 and anti-BCL-2 antibodies permeabilized cells were blocked with 2% mouse serum and 2% rabbit serum (Sigma-Aldrich) in permeabilization buffer. Intracellullar murine lymphocyte staining for Bcl-2 was carried out with the BD Cytofix/Cytoperm kit according to the manufacturer’s instructions. A Hamster Anti-mouse Bcl-2 (clone 3F119, BD Biosciences) and a corresponding isotype control (clone A19-3) were used. Dead cells and doublets were excluded by and FSC/SSC gating and positive DAPI or eFluor 450 viability dye staining, respectively. To assess the impact of LDC526 on the cell-cycle status of MEC-1 cells we used the BrdU Flow Kit according to the manufacturer’s protocol (BD Bioscience). BrdU was added to the media 30 minutes before commencing the analysis.
as §2

CDK9-Cyclin T1 = molecular target: T3, CDK9-Cyclin T1 (Homo sapiens, UniProt P50750); assay: FRET-based LANCE Ultra in vitro enzymatic kinase assay, CDK9; type: biochemical; conditions: CDK9 versus other CDKs
T3 construct: purchased Invitrogen
T3 sequence (P50750 whole entry): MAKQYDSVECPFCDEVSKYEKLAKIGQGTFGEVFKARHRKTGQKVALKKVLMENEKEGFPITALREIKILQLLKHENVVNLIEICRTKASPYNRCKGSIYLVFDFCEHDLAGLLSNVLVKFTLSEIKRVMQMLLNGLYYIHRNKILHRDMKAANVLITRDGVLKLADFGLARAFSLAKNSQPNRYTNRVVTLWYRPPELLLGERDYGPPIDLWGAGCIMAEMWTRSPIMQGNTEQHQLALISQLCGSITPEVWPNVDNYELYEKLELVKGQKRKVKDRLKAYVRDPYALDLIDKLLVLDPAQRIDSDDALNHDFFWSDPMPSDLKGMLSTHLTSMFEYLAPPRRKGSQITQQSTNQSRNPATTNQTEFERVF
T3 sequence (O60563 whole entry partner): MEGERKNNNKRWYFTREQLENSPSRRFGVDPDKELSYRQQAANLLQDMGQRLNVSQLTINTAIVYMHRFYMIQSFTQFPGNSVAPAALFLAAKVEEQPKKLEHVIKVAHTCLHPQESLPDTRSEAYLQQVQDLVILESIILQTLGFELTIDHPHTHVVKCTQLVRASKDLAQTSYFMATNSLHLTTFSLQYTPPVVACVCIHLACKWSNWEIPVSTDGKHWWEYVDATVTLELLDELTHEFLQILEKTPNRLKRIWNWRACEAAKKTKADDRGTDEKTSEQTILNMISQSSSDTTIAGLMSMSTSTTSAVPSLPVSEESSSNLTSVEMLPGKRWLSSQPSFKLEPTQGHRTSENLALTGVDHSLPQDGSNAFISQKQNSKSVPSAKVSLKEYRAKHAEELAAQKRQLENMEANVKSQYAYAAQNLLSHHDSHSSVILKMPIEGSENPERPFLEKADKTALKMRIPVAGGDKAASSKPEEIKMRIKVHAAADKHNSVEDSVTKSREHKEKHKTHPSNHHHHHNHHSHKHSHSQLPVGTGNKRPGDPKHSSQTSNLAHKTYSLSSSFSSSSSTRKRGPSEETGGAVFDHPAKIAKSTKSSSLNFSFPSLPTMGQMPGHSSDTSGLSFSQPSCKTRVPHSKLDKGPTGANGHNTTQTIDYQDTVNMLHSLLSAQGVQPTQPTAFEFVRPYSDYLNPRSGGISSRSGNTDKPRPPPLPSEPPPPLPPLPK
Protocol: as §1, §2

[2] = 4 hours, increasing concentrations

SMILES: COc1cc(F)ccc1-c1ncnc(Nc2cccc(CS(N)(=O)=O)c2)n1 [LDC526, (3-((4-(4-fluoro-2-methoxyphenyl)-1,3,5-triazin-2-yl)amino)phenyl)methane-sulfonamide]
- selectivity versus CDK9 compared to CDK1 (CDK1-Cyclin B1): 82 fold
- pIC50 (CDK7-Cyclin H-MAT1): < 5.00
- apoptosis of primary CLL PBMCs (Annexin V) ([1]; 4 hours, 500 and 1000 nM): significantly increased percentages of apoptosis
- BCL-2 levels in primary CLL cells [1, 2]: not significantly altered
- MCL-1 protein levels in primary CLL cells [1, 2]: significantly decreased MCL-1 protein levels
- pIC50 ([1]; 24 hours incubation): 6.47
- pIC50 ([1]; 48 hours incubation): 6.55
- LDC526-induced effect between prognostic CLL subgroups (FISH, CD38, Binet, therapy) ([1]; high-risk versus low-risk): no statistically significant differences
- selectivity against other CDKs (CDK9-Cyclin T1): at least 50 fold
